The source of these data is patent US11634624B2, “Surfactants for enhanced oil recovery” (MOL MAGYAR OLAJ- ÉS GÁZIPARI NYILVÁNOSAN MŰKÖDŐ …, priority 2018, dated 2023).

The format of series [1] is physicochemical. The text has this:
For the test, the prepared surfactant solution samples were filled into a clean, dry cuvette and then scattered in a spectrophotometer at 500 nm wavelength using a nephelometric pad at ambient temperature. The turbidity of the sample to be tested is compared to the light scattering of pure water (0%) and the reference opal body (100%).

Series [2] can be described thus: Interfacial tension (IFT), spinning drop. The following applies: for IFT (mN/m), concentration 0.1 g/l / IFT (mN/m), concentration 1 g/l / IFT (mN/m), concentration 5 g/l: commercial surfactants; for IFT (mN/m) 0.1 g/l / IFT (mN/m) 1.0 g/l: 40° C., 4500 rpm. It is filed as physicochemical. The procedure: The interfacial tension (IFT) in the following examples is measured in a spinning drop type tensile meter at 4500 rpm at 40° C. temperature. The test capillary was filled with various concentrations of surfactant solution into which a drop of oil of Algyő type oil was injected through a syringe. In steady state, the interfacial tension between the surfactant solution and the crude oil can be calculated based on the geometric dimensions of the droplet taken by the oil drop.

A short description of series [3]: Oil solubility (turbidity of 1% in model oil). The class given is physicochemical. Particulars: for Solubility in oil, appearance / dissolution: symbol or word. On the procedure:
In the course of the test, 0.2 g of the surfactant to be tested is weighed into 20 g of model oil and then dissolved for 1 hour at 60° C. with vigorous stirring. After cooling, the samples were poured into a clean, dry cuvette and then scattered at 500 nm with a spectrophotometer at ambient temperature. As reference, the light scattering of pure oil (0%) and standard opal body (100%) is used.

Series [4] can be described thus: Thermal (heat/hydrolytic) stability, 90° C., 3 hours, transmittance. It is filed as physicochemical. Particulars: for Heat stability (90° C., 3 hours), appearance: appearance symbol; for Heat stability (90° C., 3 hours) (%): turbidity number.

Take “2-methylpentane-1,5-diammonium-bis(C14-C17 sec-alkylsulphonate) [Example 5]”: in series [1], the Water solubility was found to be 100%; the “Water solubility (%)” value is listed as 100%; the “Water solubility, appearance” value was “m”.
In the case of `CCCCCCCCCCCCc1ccc(S(=O)(=O)[O-])cc1.[Na+]` [DBSNa-salt 30% solution, Sodium salt of dodecylbenzylsulfonic acid, reference compound], in series [2], the “IFT (mN/m), concentration 0.1 g/l” value amounted to 0.34 mN/m; the “IFT (mN/m), concentration 1 g/l” value was 0.63 mN/m; the “IFT (mN/m), concentration 5 g/l” value is listed as 0.88 mN/m.
For the molecule `CCCCCCCCCCCCc1ccc(S(=O)(=O)O)cc1.CCCCCCCCCCCCc1ccc(S(=O)(=O)O)cc1.NCCCCCCN` [Example 21], in series [1], the “Water solubility (%)” value is listed as 100% and the “Water solubility, appearance” value was “m”. The “Solubility in oil, appearance / dissolution” value in series [3] is recorded as “n.o”. In series [4], the “Heat stability (90° C., 3 hours), appearance” value (shortened to “Heat stability … appearance”) is on record as “m” and the “Heat stability (90° C., 3 hours) (%)” value is listed as 100%. In addition, in series [2], the “IFT (mN/m) 0.1 g/l” value was found to be 0.019 mN/m and the “IFT (mN/m) 1.0 g/l” value is 0.015 mN/m.
Consider `CCCCCCCCCCCCc1ccc(S(=O)(=O)O)cc1.CCCCCCCCCCCCc1ccc(S(=O)(=O)O)cc1.NCCCCN` [Example 23], for which, in series [1], the “Water solubility (%)” value amounted to 100% and the “Water solubility, appearance” value is on record as “m”. The “Solubility in oil, appearance / dissolution” value in series [3] is on record as “n.o”. Further, in series [4], the “Heat stability … appearance” value was “b” and the “Heat stability (90° C., 3 hours) (%)” value amounted to 20%. In series [2], the “IFT (mN/m) 0.1 g/l” value was 0.120 mN/m and the “IFT (mN/m) 1.0 g/l” value was 0.170 mN/m.
With `CCCCCCCCCCCCc1ccc(S(=O)(=O)O)cc1.CCCCCCCCCCCCc1ccc(S(=O)(=O)O)cc1.NCCCOCCCCOCCCN` [Example 24], in series [1], the “Water solubility (%)” value was 100% and the “Water solubility, appearance” value is “m”. Besides, in series [3], the “Solubility in oil, appearance / dissolution” value is reported as “op”. Further, the “Solubility in oil (%)” value in series [3] (turbidity number) is given as 18%. In series [4], the “Heat stability … appearance” value is reported as “op” and the “Heat stability (90° C., 3 hours) (%)” value amounted to 100%. In series [2], the “IFT (mN/m) 0.1 g/l” value came to 0.042 mN/m and the “IFT (mN/m) 1.0 g/l” value is listed as 0.103 mN/m.
As to `CCCCCCCCCCCCc1ccc(S(=O)(=O)O)cc1.CCCCCCCCCCCCc1ccc(S(=O)(=O)O)cc1.CN(C)CCCNCCCN(C)C.Cl` [Example 38], in series [4], the “Heat stability … appearance” value was “op” and the “Heat stability (90° C., 3 hours) (%)” value is on record as 31%. Moreover, in series [2], the “IFT (mN/m) 0.1 g/l” value was 0.15 mN/m and the “IFT (mN/m) 1.0 g/l” value turned out to be 0.16 mN/m.
As for `CC(O)CO` (stereo not drawn) [Propylene glycol, reference compound], in series [2], the “IFT (mN/m), concentration 0.1 g/l” value is reported as 11.53 mN/m; the “IFT (mN/m), concentration 1 g/l” value was 16.14 mN/m; the “IFT (mN/m), concentration 5 g/l” value is 15.4 mN/m.
As to “bis(C14-C17 sec-alkyl)-sulphonate-poly (propylene-glycol)-bis-(2-ammonium-propyl)-ether salt [Example 3]”, the Water solubility in series [1] was determined as 4%.
